2 compounds from publication PMC8476055, “Synthesis and Biological Activity of Triterpene–Coumarin Conjugates” (Journal of Natural Products, 2021) can be followed below.

This data set in a line: MTT assay, statements over the three nontumor cell lines. Conditions: human, rat, at the IC50 concentration of the respective cancer cell line; over HPF, IEC-18, WRL68; read-out: cell viability percentage of nontumor cells. Type of data set: cell-based. The text has this:
Only MA conjugates 7 and 10 were selected to compare the growth inhibitory effects in the three nontumor cell lines (HPF, IEC-18, and WRL68) versus the three cancer cell lines (B16–F10, HT29, and Hep G2). Therefore, the cytotoxic effects on B16–F10 murine melanoma cells were compared with those of HPF normal human epithelial lung fibroblasts, with similar tissue. Similarly, the cytotoxic effects of these conjugates on HT29 colon cancer cells and Hep G2 hepatoma cells were compared with those of nontumor cells of the same tissue, such as IEC-18 normal rat ileum cells and WRL68 normal human embryo liver cells, respectively.
The effect of the synthesized compounds on the viability of tumor cells was assessed using an MTT assay, based on the ability of living cells to cleave the tetrazolium ring, thus producing formazan, which absorbs at 570 nm. The MA conjugates (1–12) were assayed against the selected cancer cell lines. […] Relative cell viability, with respect to untreated control cells, was measured by absorbance at 550 nm on an ELISA plate reader (Tecan Sunrise MR20-301, TECAN, Austria). […] These experiments were measured and compared to the control after 72 h of treatment.

One may read the viability as the share of living cells, or the viability signal relative to a control.

Take `CC1(C)CC[C@]2(C(=O)NCCCNC(=O)/C=C/c3ccc(O)cc3)CC[C@]3(C)C(=CC[C@@H]4[C@@]5(C)C[C@@H](O)[C@H](O)C(C)(C)[C@@H]5CC[C@]43C)[C@@H]2C1` [Compound 7, 2α,3β-Dihydroxy-N-(3′-((E)-3″-(4‴-hydroxyphenyl)acrylamido)propyl)olean-12-en-28-amide]: the viability at 72 h was in the range of 61 to 88%.

With `CC1(C)CC[C@]2(C(=O)O)CC[C@]3(C)C(=CC[C@@H]4[C@@]5(C)C[C@@H](OC(=O)c6cc7ccccc7oc6=O)[C@H](OC(=O)c6cc7ccccc7oc6=O)C(C)(C)[C@@H]5CC[C@]43C)[C@@H]2C1` [Compound 10], the viability at 72 h turned out to be 90%.
